We go through 3 compounds from PMC9271048, “Probing strigolactone perception mechanisms with rationally designed small-molecule agonists stimulating germination of root parasitic weeds” (Nature Communications, 2022).

The IC50 is the midpoint of a concentration-inhibition curve. A high value points to lower potency.

The subject of experiment [1] is ShHTL7S95A. In words: Hydrolysis reaction analysis with ShHTL7 S95A mutant. It is filed as biochemical, Striga hermonthica. The following applies: Supplementary Figs. 20a, 24a. How it is done: Compounds 4a, (R)- and (S)-4a, 4g-i, and rac-GR24 were dissolved in DMSO and prepared as stock solution ([…]) just before use. A 200 μL of the reaction solution consisting of PBS buffer (pH 7.3), 10 μM samples, and 10 μg recombinant ShHTL7 or its mutants was incubated at 30 °C for 30 min; with the reaction solution (200 μL) containing PBS buffer (pH 7.3) and 10 μM samples as the blank control[40],[52]. Subsequently, the reaction was terminated by adding 200 μL of methanol, and then the reaction mixture was shaken for 10 s and centrifuged at 5310 × g for 60 s. The supernatant was filtered and the remaining amount of samples was analyzed by HPLC. The relative percentages of hydrolysis were obtained by using the amount of compounds in blank control as reference.
Supplementary Fig. 20. Effect of key amino acid residues on the hydrolysis of ShHTL7 and binding affinity. a, Relative percentage of hydrolysis of compound (S)-4a by ShHTL7S95A, ShHTL7H246A, and ShHTL7. The error bar indicates SD (n = 3 biologically independent experiments). b, Competitive mutants of ShHTL7 inhibitory activity in YLG assay. Data are the means ± SD (n = 3 biologically independent experiments).
(1 picture or pasted object on this page, not shown here) […]

Experiment [2] concerns the target ShHTL7 S95C (Striga hermonthica, UniProt A0A0M3PNA2, S95C). In words: YLG competitive inhibition, ShHTL7 mutant S95C. It is filed as biochemical. The text has this:
(§1) To clarify the dynamics of how the catalytic triad affects hydrolysis by ShHTL7, we performed MD simulations to study the differences between (R)-4a and (S)-4a (Supplementary Fig. 21). […] To further characterize our computational models, we performed mutation studies of the key residues in the active pockets that may have interactions with our molecules. Indeed, a number of the mutations of specific residues altered the IC50 values, supporting our simulated models (Supplementary Fig. 20b).
(§2) The excitation and emission wavelengths of YLG are 480 and 520 nm, respectively. We used a fluorescence spectrophotometer (CARY Eclipse) to detect the fluorescence intensity change of YLG during the enzymatic hydrolysis assay process. All the testing compounds and YLG were dissolved in DMSO and prepared as stock solutions just before use. […] The changes of fluorescence at 520 nm of each well were recorded every 1 min for 30 min. Using the reaction mixture without adding enzyme and tested compounds as the background control. After subtracting the background hydrolysis, a linear fluorescence increase in 8 min was used for further inspection. The IC50 values were determined via fitting relative inhibition percentages with the varying concentrations of compounds in Microsoft Excel.
(§3) Supplementary Fig. 20. […]

Experiment [3] has as its target ShHTL7 M219A (Striga hermonthica, UniProt A0A0M3PNA2, M219A). Put plainly: YLG competitive inhibition, ShHTL7 mutant M219A. It is filed as biochemical.
Text: as §1, §2, §3

Experiment [4] deals with ShHTL7 M219V (Striga hermonthica, UniProt A0A0M3PNA2, M219V). Put plainly: YLG competitive inhibition, ShHTL7 mutant M219V. It is filed as biochemical.
Sequence of ShHTL7 M219V (A0A0M3PNA2 whole entry M219V): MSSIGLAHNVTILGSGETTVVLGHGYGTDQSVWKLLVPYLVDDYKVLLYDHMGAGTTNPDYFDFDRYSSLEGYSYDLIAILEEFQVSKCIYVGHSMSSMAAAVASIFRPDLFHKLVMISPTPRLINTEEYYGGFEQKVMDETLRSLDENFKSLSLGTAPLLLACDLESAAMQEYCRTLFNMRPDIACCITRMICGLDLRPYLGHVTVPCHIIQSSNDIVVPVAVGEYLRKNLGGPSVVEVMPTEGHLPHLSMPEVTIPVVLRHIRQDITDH
Text: as §1, §2, §3

Experiment [5] addresses ShHTL7 T157Y (Striga hermonthica, UniProt A0A0M3PNA2, T157Y). In words: YLG competitive inhibition, ShHTL7 mutant T157Y. It is filed as biochemical.
Text: as §1, §2, §3

Experiment [6] concerns the target ShHTL7 T190G (Striga hermonthica, UniProt A0A0M3PNA2, T190G). In words: YLG competitive inhibition, ShHTL7 mutant T190G. It is filed as biochemical.
Text: as §1, §2, §3

The target of experiment [7] is ShHTL7 T142L (Striga hermonthica, UniProt A0A0M3PNA2, T142L). Put plainly: YLG competitive inhibition, ShHTL7 mutant T142L. The class given is biochemical.
Sequence of ShHTL7 T142L (A0A0M3PNA2 whole entry T142L): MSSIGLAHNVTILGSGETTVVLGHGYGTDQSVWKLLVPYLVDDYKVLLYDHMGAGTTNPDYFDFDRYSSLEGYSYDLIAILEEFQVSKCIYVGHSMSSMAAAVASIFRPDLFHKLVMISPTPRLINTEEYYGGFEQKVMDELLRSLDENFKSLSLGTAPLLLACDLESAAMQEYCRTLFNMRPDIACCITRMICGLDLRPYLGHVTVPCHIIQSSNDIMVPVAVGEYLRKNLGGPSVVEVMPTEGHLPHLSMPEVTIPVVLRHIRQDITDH
Text: as §1, §2, §3

The target in experiment [8] is ShHTL7 T190F (Striga hermonthica, UniProt A0A0M3PNA2, T190F). Put plainly: YLG competitive inhibition, ShHTL7 mutant T190F. The class given is biochemical.
Sequence of ShHTL7 T190F (A0A0M3PNA2 whole entry T190F): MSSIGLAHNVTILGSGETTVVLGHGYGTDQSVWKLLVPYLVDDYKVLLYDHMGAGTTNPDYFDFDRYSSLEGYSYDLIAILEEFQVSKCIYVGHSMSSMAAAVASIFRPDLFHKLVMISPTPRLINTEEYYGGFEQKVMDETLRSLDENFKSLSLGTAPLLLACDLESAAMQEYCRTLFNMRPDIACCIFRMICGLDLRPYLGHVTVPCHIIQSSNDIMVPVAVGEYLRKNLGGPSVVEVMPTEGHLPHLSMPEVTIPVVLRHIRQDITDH
Text: as §1, §2, §3

The target of experiment [9] is ShHTL7 Y26F (Striga hermonthica, UniProt A0A0M3PNA2, Y26F). In words: YLG competitive inhibition, ShHTL7 mutant Y26F. The class given is biochemical.
Sequence of ShHTL7 Y26F (A0A0M3PNA2 whole entry Y26F): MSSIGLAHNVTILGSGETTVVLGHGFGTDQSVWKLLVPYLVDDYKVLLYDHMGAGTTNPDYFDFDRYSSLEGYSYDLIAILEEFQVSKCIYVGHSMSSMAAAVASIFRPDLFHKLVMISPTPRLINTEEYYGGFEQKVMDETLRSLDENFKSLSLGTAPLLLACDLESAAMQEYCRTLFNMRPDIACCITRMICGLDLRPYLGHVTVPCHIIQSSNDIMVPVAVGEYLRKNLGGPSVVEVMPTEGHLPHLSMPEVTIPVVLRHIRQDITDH
Text: as §1, §2, §3

The target in experiment [10] is ShHTL7 L161M (Striga hermonthica, UniProt A0A0M3PNA2, L161M). Put plainly: YLG competitive inhibition, ShHTL7 mutant L161M. The class given is biochemical.
Sequence of ShHTL7 L161M (A0A0M3PNA2 whole entry L161M): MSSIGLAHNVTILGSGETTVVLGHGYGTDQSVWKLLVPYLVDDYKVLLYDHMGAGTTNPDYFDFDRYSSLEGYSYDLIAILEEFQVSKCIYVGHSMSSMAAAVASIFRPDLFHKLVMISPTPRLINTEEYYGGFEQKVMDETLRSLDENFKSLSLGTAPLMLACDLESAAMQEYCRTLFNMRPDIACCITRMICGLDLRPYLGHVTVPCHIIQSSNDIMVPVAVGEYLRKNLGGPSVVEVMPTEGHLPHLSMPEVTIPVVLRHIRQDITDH
Text: as §1, §2, §3

In experiment [11] the target is ShHTL7 L161A (Striga hermonthica, UniProt A0A0M3PNA2, L161A). Put plainly: YLG competitive inhibition, ShHTL7 mutant L161A. The class given is biochemical.
Sequence of ShHTL7 L161A (A0A0M3PNA2 whole entry L161A): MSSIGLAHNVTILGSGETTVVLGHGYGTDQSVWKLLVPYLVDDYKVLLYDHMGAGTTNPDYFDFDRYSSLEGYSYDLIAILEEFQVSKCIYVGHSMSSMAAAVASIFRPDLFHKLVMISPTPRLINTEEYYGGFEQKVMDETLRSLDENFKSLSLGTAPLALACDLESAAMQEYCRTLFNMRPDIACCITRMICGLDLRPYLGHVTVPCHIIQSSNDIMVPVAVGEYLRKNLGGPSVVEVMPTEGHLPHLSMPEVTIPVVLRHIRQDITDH
Text: as §1, §2, §3

Experiment [12] deals with ShHTL7 F134K (Striga hermonthica, UniProt A0A0M3PNA2, F134K). In words: YLG competitive inhibition, ShHTL7 mutant F134K. It is filed as biochemical.
Sequence of ShHTL7 F134K (A0A0M3PNA2 whole entry F134K): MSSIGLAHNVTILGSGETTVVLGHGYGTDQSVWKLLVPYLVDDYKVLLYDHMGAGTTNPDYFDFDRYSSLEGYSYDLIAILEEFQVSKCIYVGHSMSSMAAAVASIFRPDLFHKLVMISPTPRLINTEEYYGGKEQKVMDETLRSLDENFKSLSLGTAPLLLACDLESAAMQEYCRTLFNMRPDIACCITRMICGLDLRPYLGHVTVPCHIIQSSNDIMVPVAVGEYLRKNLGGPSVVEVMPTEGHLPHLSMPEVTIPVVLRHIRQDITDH
Text: as §1, §2, §3

The target of experiment [13] is ShHTL7 T157A (Striga hermonthica, UniProt A0A0M3PNA2, T157A). In words: YLG competitive inhibition, ShHTL7 mutant T157A. It is filed as biochemical.
Sequence of ShHTL7 T157A (A0A0M3PNA2 whole entry T157A): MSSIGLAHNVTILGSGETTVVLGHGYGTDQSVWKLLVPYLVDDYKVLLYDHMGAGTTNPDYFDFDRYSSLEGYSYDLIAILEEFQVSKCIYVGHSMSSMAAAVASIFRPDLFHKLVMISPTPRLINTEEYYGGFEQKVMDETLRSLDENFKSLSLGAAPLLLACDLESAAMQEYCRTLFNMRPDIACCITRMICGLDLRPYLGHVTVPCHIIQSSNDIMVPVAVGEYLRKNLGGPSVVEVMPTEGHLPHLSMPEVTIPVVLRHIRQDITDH
Text: as §1, §2, §3

The target in experiment [14] is ShHTL7 T142K (Striga hermonthica, UniProt A0A0M3PNA2, T142K). Put plainly: YLG competitive inhibition, ShHTL7 mutant T142K. The class given is biochemical.
Sequence of ShHTL7 T142K (A0A0M3PNA2 whole entry T142K): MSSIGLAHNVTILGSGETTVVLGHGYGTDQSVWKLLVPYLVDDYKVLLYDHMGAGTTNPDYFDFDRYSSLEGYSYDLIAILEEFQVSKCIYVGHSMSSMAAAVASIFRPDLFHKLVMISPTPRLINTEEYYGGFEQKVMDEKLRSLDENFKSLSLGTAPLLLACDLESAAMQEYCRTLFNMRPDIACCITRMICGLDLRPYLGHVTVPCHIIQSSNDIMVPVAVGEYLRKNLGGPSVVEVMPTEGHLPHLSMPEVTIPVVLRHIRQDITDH
Text: as §1, §2, §3

The target in experiment [15] is ShHTL7 F134A (Striga hermonthica, UniProt A0A0M3PNA2, F134A). In words: YLG competitive inhibition, ShHTL7 mutant F134A. It is filed as biochemical.
Sequence of ShHTL7 F134A (A0A0M3PNA2 whole entry F134A): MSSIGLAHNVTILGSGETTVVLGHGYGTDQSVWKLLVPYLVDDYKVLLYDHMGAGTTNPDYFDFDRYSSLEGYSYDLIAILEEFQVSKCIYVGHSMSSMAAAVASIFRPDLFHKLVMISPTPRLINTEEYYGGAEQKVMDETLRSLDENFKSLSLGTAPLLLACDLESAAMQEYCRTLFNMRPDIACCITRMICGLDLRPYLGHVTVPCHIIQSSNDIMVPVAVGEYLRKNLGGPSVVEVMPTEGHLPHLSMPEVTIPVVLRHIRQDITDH
Text: as §1, §2, §3

Sequence of ShHTL7 M219A (A0A0M3PNA2 whole entry M219A): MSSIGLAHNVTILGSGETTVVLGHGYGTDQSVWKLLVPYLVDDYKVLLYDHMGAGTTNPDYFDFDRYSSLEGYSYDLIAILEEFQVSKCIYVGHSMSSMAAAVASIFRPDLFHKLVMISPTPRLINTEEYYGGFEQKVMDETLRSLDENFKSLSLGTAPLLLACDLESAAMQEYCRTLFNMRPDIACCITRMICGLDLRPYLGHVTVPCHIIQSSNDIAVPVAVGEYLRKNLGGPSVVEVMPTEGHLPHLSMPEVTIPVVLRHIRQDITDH
Sequence of ShHTL7 T157Y (A0A0M3PNA2 whole entry T157Y): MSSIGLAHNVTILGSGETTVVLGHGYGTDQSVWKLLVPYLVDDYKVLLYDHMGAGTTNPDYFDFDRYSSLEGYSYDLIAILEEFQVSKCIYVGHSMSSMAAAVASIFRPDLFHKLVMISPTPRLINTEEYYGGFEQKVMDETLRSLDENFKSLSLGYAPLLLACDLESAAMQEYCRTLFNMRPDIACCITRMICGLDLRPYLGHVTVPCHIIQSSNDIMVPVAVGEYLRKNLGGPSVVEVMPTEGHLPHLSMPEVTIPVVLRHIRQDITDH
Sequence of ShHTL7 T190G (A0A0M3PNA2 whole entry T190G): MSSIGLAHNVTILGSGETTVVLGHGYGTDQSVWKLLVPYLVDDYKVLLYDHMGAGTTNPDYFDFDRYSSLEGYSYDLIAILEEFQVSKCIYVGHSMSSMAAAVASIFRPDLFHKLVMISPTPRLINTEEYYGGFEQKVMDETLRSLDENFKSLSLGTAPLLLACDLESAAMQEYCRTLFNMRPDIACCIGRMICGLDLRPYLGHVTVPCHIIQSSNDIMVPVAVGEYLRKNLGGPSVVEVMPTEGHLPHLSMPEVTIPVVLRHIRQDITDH
Sequence of ShHTL7 S95C (A0A0M3PNA2 whole entry S95C): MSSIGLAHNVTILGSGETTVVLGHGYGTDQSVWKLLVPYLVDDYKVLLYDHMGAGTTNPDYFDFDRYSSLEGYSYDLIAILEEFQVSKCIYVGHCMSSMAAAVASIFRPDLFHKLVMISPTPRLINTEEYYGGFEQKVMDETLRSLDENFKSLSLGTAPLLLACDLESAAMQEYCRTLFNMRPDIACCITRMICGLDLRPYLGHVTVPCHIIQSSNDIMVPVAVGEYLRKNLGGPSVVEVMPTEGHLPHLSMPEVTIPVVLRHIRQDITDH

Consider `CC1=CC(OC(=O)N2CCN(C(=O)COc3ccc(Br)cc3C)CC2)CC1=O` (stereo not drawn) [4g], for which the “relative percentage of hydrolysis by ShHTL7S95A, source data average” value in experiment [1] is recorded as 3.871%.

As to `CC1=C[C@@H](OC(=O)N2CCN(C(=O)COc3ccc(Br)cc3C)CC2)OC1=O` [(R)-4a], the IC50 in experiment [2] was 43.7 µM; in [3] it was more than 100 µM; in [4], 22 µM; in experiment [5], 23.3 µM; in experiment [6], 26.4 µM; in experiment [7] it was 1.88 µM. In addition, the IC50 in experiment [8] turned out to be 4.69 µM; in experiment [9], 29.9 µM; in experiment [10] it was 34.3 µM; in experiment [11] it was 100 µM; in experiment [12], 62.1 µM; in [13], 2.61 µM. Also, the IC50 in experiment [14] amounted to 4.13 µM; in [15], 58.1 µM.

Turning to `CC1=C[C@H](OC(=O)N2CCN(C(=O)COc3ccc(Br)cc3C)CC2)OC1=O` [(S)-4a], the IC50 came out at 0.293 µM in [2]; 6.53 µM in experiment [3]; 0.347 µM in experiment [4]; 0.949 µM in experiment [5]; 0.575 µM in experiment [6]; 0.3 µM in experiment [7]. The IC50 in experiment [8] worked out at 1.07 µM; in [9], 0.233 µM; in [10], 0.666 µM; in experiment [11], 0.155 µM; in experiment [12], 0.613 µM; in [13], 0.17 µM. Further, the IC50 in experiment [14] worked out at 0.203 µM; in experiment [15], 0.531 µM. Further, in experiment [1], the “relative percentage of hydrolysis by ShHTL7S95A, source data average” value is listed as 1.485%.
